{"source": "patent US8927728B2", "about": "“Dipeptide acetylene conjugates and a method for photocleavage of double strand DNA by dipeptide acetylene conjugates” (The Florida State University Research Foundation, Inc., priority 2011, dated 2015)", "key": {"[1]": {"test": "Fluorescence quenching by triethylamine (Stern-Volmer)", "type": "physicochemical", "conditions": "Et3N as a quencher; determined from Ksv and singlet lifetime", "procedure": "The fluorescence quenching by triethylamine (Et3N) was tested in order to gauge relative efficiencies of these compounds as DNA photo-oxidizers. […] The measured singlet lifetimes allowed us to determine the quenching rate constant, kq, which in this system, should be very close in magnitude to the rate of electron transfer, kET. The 2-3-fold increase in the rate of electron transfer from Et3N to excited singlet state of the meta- and ortho-isomers in comparison to the para-isomer is consistent with the well-known photochemical ortho, meta effect of an acceptor substituent. See Zimmerman, H. E., The Meta Effect in Organic Photochemistry: Mechanistic and Exploratory Organic Photochemistry, J. Am. Chem. Soc., 1995, 117, 8988-8991. doi: 10.1021/ja00140a014 and Zimmerman, H. E.; Alabugin, I. V. J. Am. Chem. Soc. 2001, […]. doi: 10.1021/ja002402c."}, "[2]": {"system": "pBR322 plasmid DNA", "test": "Plasmid relaxation assay for DNA photocleavage", "type": "biochemical", "conditions": "30 μM/base pair pBR322, pH 6, 7 and 8; for DNA cleavage efficiency: 15 μM lysine conjugate", "procedure": "The present invention is additionally directed to methods of forming a double strand cleavage in DNA, wherein compounds having the above Structures are contacted with and bind to double stranded DNA. The pH-dependency of DNA-cleavage of the two bis-lysine conjugates was investigated. The top of FIGS. 6A and 6B depicts the results of the plasmid relaxation assay for DNA photocleavage with 15 μM of acetylenic conjugates (3) (FIG. 6A) and (5) (FIG. 6B) and […] (b.p.) of pBR322 plasmid DNA at pH range of 6-9 after 10 min. of UV (>310 nm) irradiation. The bottom of each of FIGS. 6A and 6B are graphs of quantified cleavage data as a function of pH for conjugates (3) (FIG. 6A) and (5) (FIG. 6B). The reported values represent the average of three experiments. Code: Form I, diamond; Form II, square; Form III, triangle.\nThe plasmid relaxation assay experiments were carried out on 15 μM of lysine conjugate with 30 μM/base pair of pBR322 plasmid DNA at pH 6, 7 and 8.\nPlasmid DNA Photocleavage. pBR322 plasmid DNA (4,361 bp; from BioLabs Inc., 1 μg/μL solution in 10 mM Tris-HCl (pH 8.0), and 1mM EDTA buffer) was diluted to a concentration of 0.01 μg/μL. The solution containing cleavage agent, DNA (30 μM/bp) in 20 mM sodium phosphate buffer was incubated for 1 hour at 30° C. Samples were placed on ice at a distance of 20 cm from 200 W Hg—Xe lamp (Spectra-Physics, Laser & Photonics Oriel Instruments with long pass filter with 300 nm cut-on wavelength).\nElectrophoretic Analysis. The gel electrophoresis was carried out in lx TBE buffer at 80 V using Miligel FisherBiotech Horizontal Electrophoresis System. All gels were run on 1% agarose slab gels. Before loading, the DNA samples were mixed with 0.33 volume of tracking dye containing bromophenol blue (0.25%) and glycerol (30%) in water. After staining in ethidium bromide solution (2 μg/mL) for 1 hour, the gel was washed with water and pictures were taken. The relative quantities of the supercoiled, nicked, and linear DNA were calculated by integrating the “area” of each spot by the image analyzer software Total/Lab (Nonlinear Dynamics Ltd., UK). […]"}, "[3]": {"system": "A375 cells (Human Melanoma)", "test": "Cell proliferation (MTT) assay", "type": "cell-based", "conditions": "A375, after 10 min UV irradiation at 360 nm", "procedure": "The ability of compounds (15), (16), and (17) to inhibit cell proliferation in human melanoma cell lines was tested in the dark and under photoactivation. See FIGS. 9A and 9B, which depict cell proliferation assays in A375 cells (Human Melanoma) exposed to bis-lysine conjugates (15) (square), (16) (up-pointing triangle) and (17) (down-pointing triangle) in dark (FIG. 9A) and after 10 min. of UV (360 nm) irradiation (FIG. 9B).\nMTT Assay. A375 cells were seeded at 2000 cells per well in a 96-well plate. Seven 2-fold serial dilutions of the compounds were added to the cells in triplicate. Concentrations were from 1 to 0.016 μM of compounds. After 4 hs of incubation with the compounds, cells were UV-irradiated for ten minutes at 365 nm (UV transluminator, Spectronomics Corp. model TR-365R). After 72hs of incubation, MTT (Sigma® cat#M2128) was added to cells to a final concentration of 1.25 mg/mL and incubated for 60 minutes. Cells were centrifuged at 900 g for 5 minutes at room temperature. Media was replaced with DMSO and absorbance will be measured in a plate reader at 570 nm."}, "[4]": {"conditions": "from Carey, Organic Chemistry, 6th ed.; cited from earlier work"}, "[5]": {"system": "DNA", "conditions": "literature value; cited from earlier work"}}, "note": "Structures can show the parent of a compound that is named as a salt. Marks after values point to notes of the source that are not given here.", "data": [{"compound": "CC(=O)Nc1ccc(C#Cc2c(F)c(F)nc(F)c2F)cc1", "note": "[(3) (para), N-(4-((Perfluoropyridin-4-yl)ethynyl)phenyl)acetamide]", "values": [{"measurement": "kq (quenching rate constant)", "setting": "[1]", "result": "5.64e+09", "unit": "M⁻¹ s⁻¹"}]}, {"compound": "CC(=O)Nc1cccc(C#Cc2c(F)c(F)nc(F)c2F)c1", "note": "[(4) (meta), N-(3-((Perfluoropyridin-4-yl)ethynyl)phenyl)acetamide]", "values": [{"measurement": "kq (quenching rate constant)", "setting": "[1]", "result": "1.36e+10", "unit": "M⁻¹ s⁻¹"}]}, {"compound": "CC(=O)Nc1ccccc1C#Cc1c(F)c(F)nc(F)c1F", "note": "[(5) (ortho), N-(2-((Perfluoropyridin-4-yl)ethynyl)phenyl) acetamide]", "values": [{"measurement": "kq (quenching rate constant)", "setting": "[1]", "result": "1.43e+10", "unit": "M⁻¹ s⁻¹"}]}, {"compound": "NCCCC[C@H](N)C(=O)Nc1cccc(C#Cc2c(F)c(F)nc(F)c2F)c1", "note": "[(16), (S)-2,6-Diamino-N-(3-((perfluoropyridin-4-yl)ethynyl)phenyl)hexanamide Dihydrochloride]", "values": [{"measurement": "DNA cleavage efficiency", "setting": "[2]", "result": "less DNA cleavage than conjugate (15)"}]}, {"compound": "NCCCC[C@H](N)C(=O)Nc1ccccc1C#Cc1c(F)c(F)nc(F)c1F", "note": "[(17), (S)-2,6-Diamino-N-(2-((perfluoropyridin-4-yl)ethynyl)phenyl)hexanamide Dihydrochloride]", "values": [{"measurement": "DNA cleavage efficiency", "setting": "[2]", "result": "least efficient DNA cleavage"}, {"measurement": "double-strand breaks", "setting": "[2]; 15 μM", "result": "has not produced any double-strand breaks"}, {"measurement": "phototoxicity", "setting": "[3]", "result": "some phototoxicity"}]}, {"compound": "NCCCC[C@H](N)C(=O)O", "note": "[Lysine]", "values": [{"measurement": "pKa1", "setting": "[4]", "result": "8.95^b"}, {"measurement": "pKa2", "setting": "[4]", "result": "10.53^b"}]}, {"compound": "calicheamicin", "values": [{"measurement": "double strand breaks formed", "setting": "[5]", "result": "25-33%"}]}]}
